Measurements taken from the NIST ThermoML archive (doi:10.1016/j.jct.2015.09.020).
Numbers after ± are expanded uncertainties.

What was measured:
[1] = 278.15 K, 101.3 kPa, Liquid
[2] = mn = molality of the nth substance listed, in mol/kg; conditions: 278.15 K, 101.3 kPa, Liquid, m2 = 0; for speed of sound: Frequency=2 MHz, Linear variable-path acoustic interferometer; for mass density: Pycnometric method

Row | speed of sound ([1]; Frequency=2 MHz, Linear variable-path acoustic interferometer) | mass density ([1]; Pycnometric method) | speed of sound [2] | mass density [2] | SMILES
1 | 1426.2 ± 1.7 m/s | 999.96 ± 0.28 kg/m3 |  |  | O [water]
2 |  |  | 1426.2 ± 1.7 m/s | 999.96 ± 0.28 kg/m3 | O [water] + NCCCC(=O)O
3 |  |  | 1426.2 ± 1.7 m/s | 999.96 ± 0.29 kg/m3 | O [water] + N[C@@H](CCC(=O)[O-])C(=O)O.[Na+]
4 |  |  | 1426.2 ± 1.7 m/s | 999.96 ± 0.28 kg/m3 | O [water] + Cl.NCC(=O)O
